According to patent publication US10464920B2, “Vicinal primary diamines associated with metal and/or free radical chelation motifs, and active against carbonyl and oxidative stress, and use thereof” (UNIVERSITE AMIENS PICARDIE JULES VERNE, priority 2015, dated 2019):

Legend:
[1] = test system: murine endothelial brain cells (bEnd.3); test: Anti-apoptotic properties after MGO-induced apoptosis (ELISA) on bEnd.3; format: cell-based; conditions: bEnd.3, pretreated 30 min with 10 or 100 μM, then 2 mM MGO, 24 h
Description: (§1) The apoptosis of cells is evaluated by an ELISA method using two murine monoconal antibodies with one directed against the DNA and the other against the histones ([…] Cell Death Detection kit, Roche, Meylan, France). This technique makes it possible to specifically measure the mono- and oligo-nucleosomes in the cytoplasmic fraction of the cell lysates.
(§2) Briefly, the cells are inoculated in 96-well or 24-well plates at a rate of 5.10^3 cells/well for the Bend.3 and PC12 and 75.10^3 cells/well for the MRCS in the suitable medium until subconfluence. The cells are then washed with PBS, then treated with various concentrations (10 μM, 100 μM) of the products to be tested in triplicates for 30 min to 1 h (cellules PC12 and Bend.3) or 1 h (cellules MRCS) at 37° C. The solution of MGO (1 mM for the cellules PC12, 2 mM for the cellules Bend.3 and MRCS) is then added for an incubation of 24 h. […] A peroxidase combined with anti-DNA antibodies then reacts in the presence of the substrate thereof, ABTS (diammonium 2,2′-azino-bis(3-ethylbenzothiazoline-6-sulphonate) and H2O2 in order to give a green derivative of which the optical density reflects the level of apoptosis. The measurement of the absorbance is taken at 405 nm using a Perkin Elmer 2103 Envision® microplate reader. A positive control is carried out in the presence of MGO alone. […]

[2] = test system: human fibroblasts (MRC-5); test: Cytotoxicity, cellular viability (CCK-8/WST-8) on MRC-5; format: cell-based
Description: (§3) The cellular viability is evaluated by a colorimetric method based on the detection of the conversion of a salt of the tetrazolium (WST-8) by the metabolically active cells (CCK-8 kit, Sigma, Lyons, France) (Molecules, 2014, 19(8), 12048-12064; J. Pharmacol. Toxicol. Methods., 2007, 56(1), 58-62). Living cells have mitochondrial dehydrogenases that reduce the WST-8 (2-(2-methoxy-4-nitrophenyl)-3-(4-nitrophenyl)-5-(2,4-disulfophenyl)-2H-tetrazolium), monosodium salt) to formazan of an orange colour, which dissolves directly in the culture medium in the presence of 1-Methoxy PMS (1-methoxy-5-methylphenazinium methyl sulphate). After an incubation for 1 h at 37° C., the absorbance of the formazan is measured at 450 nm. The absorbance is directly proportional to the number of living cells.
(§4) Briefly, the cells are inoculated in 96-well plates at a rate of 5.10^3 cells per well in 100 μL of the suitable medium until subconfluence. The cells are then washed with D-PBS, then treated with various concentrations (10 μM, 100 μM) of the products to be tested in triplicates for 24 and 48 h. A positive control is carried out with 10% of DMSO. The CCK-8 (10 μL) solution is then added to each well for an incubation for 1 h at 37° C. The measurement of the absorbance is taken at 450 nm using a Perkin Elmer 2103 Envision® microplate reader.
(§5) The viability of the cells is expressed as a % of the control (untreated cells) by the mean±standard deviation of triplicates forming a representative experiment or of three independent experiments conducted in triplicate.

[3] = test system: rat pheochromocytoma cells, treated as neuronal cells (PC12); test: Cytotoxicity, cellular viability (CCK-8/WST-8) on PC12; format: cell-based; conditions: rat
Description: as §3, §4, §5

[4] = Cu2+ chelating properties by UV/Visible light spectrophotometry (murexide); format: physicochemical; conditions: 0.02-2 mM compound, CuSO4 0.25 mM solution, Hexamine buffer pH 5, RT 10 min
Description: J. Mol. Sci., 2009, 10, 5485-5497; Molecules, 2012, 17, 13457-13472). […] A Hexamine buffer 0.01 M/KCl 0.01 M (qsp 200 mL) of which the pH is adjusted to 5 using a solution of HCl 1N is first of all prepared. Solutions of CuSO4.5H2O at 0.5 mM (20 mL) and 0.25 mM (100 mL) are then carried out in this buffer, with the first being used to obtain the calibration curve. An aqueous solution of murexide at 1 mM must also be prepared extemporaneously (10 mL) as well as a stock solution of the compounds to be tested at 4.2 mM in Hexamine buffer 0.01 M/KCl 0.01 M or in a buffer and MeOH 75/25 mixture (6.2 mL). Various concentrations of the compounds to be tested are distributed in Hexamine buffer 0.01M/KCl 0.01M (pH=5) (Table 5) or in a buffer and MeOH 75/25 mixture in tubes for hemolysis (Table 6). The solution of CuSO4.5H2O at 0.25 mM (1 mL) is then added and this is allowed to incubate at RT for 10 min. Finally, the aqueous solution of murexide at 1 mM (0.1 mL) is introduced and is again allowed to incubate at RT for 1 min. The absorbances are then measured at 485 nm ([…]) and 520 nm ([…]) by UV/Visible light spectrophotometry (V-650 JASCO spectrometer) (measurements taken in triplicates). […] After introduction of the aqueous solution of murexide at 1 mM (0.1 mL), this is allowed to incubate at RT for 1 min and the absorbances are finally measured at 485 nm ([…]) and 520 nm ([…]) by UV/Visible light spectrophotometry.

[5] = test system: rat pheochromocytoma cells, treated as neuronal cells (PC12); test: Anti-apoptotic properties after MGO-induced apoptosis (ELISA) on PC12; format: cell-based; conditions: 24 h
Description: as §1
Briefly, the cells are inoculated in 96-well or 24-well plates at a rate of 5.10^3 cells/well for the Bend.3 and PC12 and 75.10^3 cells/well for the MRCS in the suitable medium until subconfluence. The cells are then washed with PBS, then treated with various concentrations (10 μM, 100 μM) of the products to be tested in triplicates for 30 min to 1 h (cellules PC12 and Bend.3) or 1 h (cellules MRCS) at 37° C. The solution of MGO (1 mM for the cellules PC12, 2 mM for the cellules Bend.3 and MRCS) is then added for an incubation of 24 h. The concentrations of MGO for each cell type were chosen according to literature and a cytotoxicity test (CCK8) that we conducted. The solution of lyse is then added to each well for 30 min at room temperature. The cell lysates are then centrifuged at 200 g for 10 min. Twenty microliters of this cell lysate is then used for the ELISA according to the procedure described by the supplier. The cell lysates are as such applied to a plate covered with anti-Histones antibodies making it possible to view the fragmentation of the DNA. A peroxidase combined with anti-DNA antibodies then reacts in the presence of the substrate thereof, ABTS (diammonium 2,2′-azino-bis(3-ethylbenzothiazoline-6-sulphonate) and H2O2 in order to give a green derivative of which the optical density reflects the level of apoptosis. The measurement of the absorbance is taken at 405 nm using a Perkin Elmer 2103 Envision® microplate reader. A positive control is carried out in the presence of MGO alone.
The apoptosis of the cells is expressed by the mean±standard deviation of triplicates forming a representative experiment or of three independent experiments conducted in triplicate.

[6] = test system: murine endothelial brain cells (bEnd.3); test: Cytotoxicity, cellular viability (CCK-8/WST-8) on bEnd.3; format: cell-based; conditions: mouse
Description: as §3, §4, §5

[7] = test system: human fibroblasts (MRC-5); test: Anti-apoptotic properties after MGO-induced apoptosis (ELISA) on MRC-5; format: cell-based; conditions: MRC-5, pretreated 1 h with 10 or 100 μM, then 2 mM MGO, 24 h
Description: as §1, §2

[8] = MRC-5, 10 μM, 24 h of treatment
[9] = MRC-5, 10 μM, 48 h of treatment
[10] = MRC-5, 100 μM, 24 h of treatment
[11] = MRC-5, 100 μM, 48 h of treatment
[12] = PC12, pretreated 30 min with 10 or 100 μM, then 1 mM MGO

SMILES | anti-apoptotic properties [1] | viability of the cells as a percentage of the untreated cells [2, 8] | viability of the cells as a percentage of the untreated cells [2, 9] | viability of the cells as a percentage of the untreated cells [2, 10] | viability of the cells as a percentage of the untreated cells [2, 11] | viability of the cells as a percentage of the untreated cells ([3]; 24 h, 10 μM) | viability of the cells as a percentage of the untreated cells ([3]; 24 h, 100 μM) | viability of the cells as a percentage of the untreated cells ([3]; 48 h, 10 μM) | viability of the cells as a percentage of the untreated cells ([3]; 48 h, 100 μM) | Cu^2+ chelating properties (complexation of the Cu^2+) [4] | anti-apoptotic properties [5, 12] | viability of the cells as a percentage of the untreated cells ([6]; 24 h, 10 μM) | viability of the cells as a percentage of the untreated cells ([6]; 24 h, 100 μM) | viability of the cells as a percentage of the untreated cells ([6]; 48 h, 10 μM) | viability of the cells as a percentage of the untreated cells ([6]; 48 h, 100 μM) | anti-apoptotic properties ([5]; PC12, pretreated 1 h, 100 μM, 1 mM MGO, three independent experiments in triplicate) | anti-apoptotic properties [7]
NCC(N)CCCCNC(=O)c1cc(O)c(O)c(O)c1 (stereo not shown) [Compound 30b, N-(5,6-diaminohexyl)-3,4,5-trihydroxybenzamide] | very interesting anti-apoptotic properties starting at 10 μM | 98% | 92% | 101% | 100% | 110% | 82% | 95% | 67% | most active | this trend is confirmed at 100 μM | 93% | 99% | 92% | 87% | – | –
COc1cc(/C=C/C(=O)N2CCN(C(=O)CCC(N)CN)CC2)ccc1O (stereo not shown) [Compound 29a, (E)-4,5-diamino-1-(4-(3-(4-hydroxy-3-methoxyphenyl)acryloyl)piperazin-1-yl)pentan-1-one] | – | 103% | 104% | 99% | 103% | 100% | 120% | 94% | 87% | poor results | – | 98% | 87% | 90% | 83% | – | –
NCC(N)CCC(=O)NCCCn1cccc(O)c1=O (stereo not shown) [Compound 37c, 4,5-diamino-N-(3-(3-hydroxy-2-oxopyridin-1(2H)-yl)propyl)pentanamide] | very interesting anti-apoptotic properties starting at 10 μM | 97% | 94% | 89% | 90% | 110% | 102% | 91% | 94% | – | very interesting anti-apoptotic properties starting at 10 μM | 99% | 85% | 86% | 84% | confirmed | promising anti-apoptotic properties at 100 μM
NCC(N)CCCCNC(=O)CCn1cccc(O)c1=O (stereo not shown) [Compound 37b, N-(5,6-diaminohexyl)-3-(3-hydroxy-2-oxopyridin-1(2H)-yl)propanamide] | – | 113% | 103% | 113% | 101% | 138% | 124% | 115% | 107% | most active | – | 126% | 115% | 101% | 100% | – | promising anti-apoptotic properties at 100 μM
NCC(N)CCCNC(=O)CCn1cccc(O)c1=O (stereo not shown) [Compound 37a, N-(4,5-diaminopentyl)-3-(3-hydroxy-2-oxopyridin-1(2H)-yl)propanamide] | – | 112% | 107% | 124% | 105% | 93% | 112% | 96% | 99% | – | – | 97% | 103% | 99% | 93% | – | –
